Results taken from article PMC4656030 (Journal of pharmacokinetics and pharmacodynamics, 2015).
Blank lines part the entries; values can stand above or below the molecule they belong to.

Key:
diamine oxidase = conditions: read-out: Ki for diamine oxidase; cited from earlier work
[1] = target: T1, porcine kidney diamine oxidase (Sus scrofa, UniProt Q9TRC7); assay: Diamine oxidase spectrophotometric assay with putrescine as substrate; assay type: biochemical
T1 sequence (Q9TRC7 25-755): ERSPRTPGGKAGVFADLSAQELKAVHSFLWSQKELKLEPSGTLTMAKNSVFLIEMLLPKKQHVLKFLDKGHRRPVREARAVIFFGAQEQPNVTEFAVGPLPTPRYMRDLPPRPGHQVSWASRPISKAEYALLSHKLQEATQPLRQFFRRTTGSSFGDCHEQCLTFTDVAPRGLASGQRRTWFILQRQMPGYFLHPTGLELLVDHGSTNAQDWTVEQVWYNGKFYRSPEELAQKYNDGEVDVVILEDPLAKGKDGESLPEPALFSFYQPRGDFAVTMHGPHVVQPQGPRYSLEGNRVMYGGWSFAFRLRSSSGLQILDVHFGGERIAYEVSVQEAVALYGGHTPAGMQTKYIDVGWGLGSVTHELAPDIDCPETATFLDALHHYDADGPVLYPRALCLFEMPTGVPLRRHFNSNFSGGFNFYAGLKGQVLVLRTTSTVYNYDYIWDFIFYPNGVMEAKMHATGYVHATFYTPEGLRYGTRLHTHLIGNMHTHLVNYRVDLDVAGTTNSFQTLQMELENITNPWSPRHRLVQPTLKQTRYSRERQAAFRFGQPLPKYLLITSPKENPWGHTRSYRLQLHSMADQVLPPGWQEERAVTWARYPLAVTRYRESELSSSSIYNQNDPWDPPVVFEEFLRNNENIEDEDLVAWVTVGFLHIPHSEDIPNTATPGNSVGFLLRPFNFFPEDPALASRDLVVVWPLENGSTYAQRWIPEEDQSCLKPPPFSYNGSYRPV

porcine diamine oxidase = conditions: read-out: reported KM of putrescine; cited from earlier work
[2] = after a therapeutic dose; cited from earlier work
[3] = substrate: NCCCCN; assay: purified protein, by the assay type; conditions: other: porcine DAO; pH 7.0; 37.0 °C

Molecule: [H]/N=C(/N)N/C(=N/[H])NCCc1ccccc1 [phenformin]
Ki (diamine oxidase): 4 mM

Molecule: N=C(N)NN [aminoguanidine]
% inhibition of porcine DAO ([1]; inhibitor 100 μM, putrescine 100 μM as substrate): greater than 80%

Molecule: NCCCCN [putrescine]
Km (porcine diamine oxidase): 350 µM

Ki [1]: 8.6 ± 3.1 mM
type of DAO inhibition ([1]; porcine DAO): mixed-type inhibition
Molecule: CN(C)C(=N)N=C(N)N [metformin, Metformin]
predicted concentration in the intestinal lumen [2]: 10 to 20 mM

B1: porcine kidney diamine oxidase (Sus scrofa) (protein)
chain: ERSPRTPGGKAGVFADLSAQELKAVHSFLWSQKELKLEPSGTLTMAKNSVFLIEMLLPKKQHVLKFLDKGHRRPVREARAVIFFGAQEQPNVTEFAVGPLPTPRYMRDLPPRPGHQVSWASRPISKAEYALLSHKLQEATQPLRQFFRRTTGSSFGDCHEQCLTFTDVAPRGLASGQRRTWFILQRQMPGYFLHPTGLELLVDHGSTNAQDWTVEQVWYNGKFYRSPEELAQKYNDGEVDVVILEDPLAKGKDGESLPEPALFSFYQPRGDFAVTMHGPHVVQPQGPRYSLEGNRVMYGGWSFAFRLRSSSGLQILDVHFGGERIAYEVSVQEAVALYGGHTPAGMQTKYIDVGWGLGSVTHELAPDIDCPETATFLDALHHYDADGPVLYPRALCLFEMPTGVPLRRHFNSNFSGGFNFYAGLKGQVLVLRTTSTVYNYDYIWDFIFYPNGVMEAKMHATGYVHATFYTPEGLRYGTRLHTHLIGNMHTHLVNYRVDLDVAGTTNSFQTLQMELENITNPWSPRHRLVQPTLKQTRYSRERQAAFRFGQPLPKYLLITSPKENPWGHTRSYRLQLHSMADQVLPPGWQEERAVTWARYPLAVTRYRESELSSSSIYNQNDPWDPPVVFEEFLRNNENIEDEDLVAWVTVGFLHIPHSEDIPNTATPGNSVGFLLRPFNFFPEDPALASRDLVVVWPLENGSTYAQRWIPEEDQSCLKPPPFSYNGSYRPV
Km [3]: 330 ± 160 µM
